For series [1] the following is noted: cited from earlier work.
The conditions of series [2]: humans, cited from earlier work.
The conditions of series [3]: in vivo. An excerpt: In the specification, the terms ‘eye-acceptable’ and ‘acceptable to the eye’ (as well as similar terms) are intended to mean that no lachrymatory effect is seen and/or no irritation of, and/or damage to, the surface of the eye (cornea) and/or the surrounds of the eye (the lids, tear ducts etc.) and/or the deeper structures within the eye (lens, muscles etc.).

The subject of series [4] is stromal proteins. The following applies: cited from earlier work.

SMILES strings stand for the structures.

In general, half-life refers to the time in which the quantity being followed falls by half. `C[C@H]1O[C@@H](O[C@H]2[C@@H](O)C[C@H](O[C@H]3[C@@H](O)C[C@H](O[C@H]4CC[C@@]5(C)[C@H](CC[C@@H]6[C@@H]5C[C@@H](O)[C@]5(C)[C@@H](C7=CC(=O)OC7)CC[C@]65O)C4)O[C@@H]3C)O[C@@H]2C)C[C@H](O)[C@@H]1O` [Digoxin]: the solubility in chloroform result in series [1] (chloroform) was “slightly soluble”. For the same molecule, the “solubility in diluted (50%) alcohol” value in series [1] (diluted (50%) alcohol) is “slightly soluble”. Besides, the solubility in ether entry in series [1] (ether) is given as “practically insoluble”. For the same molecule, the solubility in pyridine result in series [1] (pyridine) is “freely soluble”. In addition, in series [1] (water), the solubility in water entry was “practically insoluble”. For the same molecule, the bioavailability result in series [2] (calculated from an oral dosage form) is “about 80%”. Besides, in series [2] (oral dosage form), the half-life is 42 h.
Consider `CCO` [ethanol], for which the “maximum concentration which is acceptable in and to the eye” value in series [3] is reported as 2.5 v/v %. In series [4], the “toxic effect on stromal proteins” value is “direct toxic effect”.

Source of the values: US20100137232A1 (priority 2004, published 2010).
